Measurements taken from US20250092044A1, “Kinase Inhibitors” (Incyte Corporation, priority 2023, published 2025).

Tests used:
TRKA [1] = target: TRKA (Homo sapiens (Human), UniProt P04629); test: TRKA Enzymatic Assay; format: biochemical; conditions: 1 mM ATP
Summary of the method: (§1)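 Reaction contained 0.58 nM TRKA, 1 mM ATP, 500 nM biotinylated TK substrate and 62.5 nM SEB reagent in HEPES 50 mM pH 7.0 with 10 mM MgCl2, 1 mM DTT and 0.1 mM orthovanadate, 0.5% DMSO, ATP-initiated. After 60 min at room temperature, the TR-FRET 665/620 nm ratio was read. IC50 was fitted from percent control activity versus log concentration, with DMSO and no-ATP wells as controls.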

TRKA [2] = test: TRKA Enzymatic Assay; format: biochemical
Summary of the method: as §1

[3] = system: STAT5 (Tyr694) phosphorylation in SET-2 cells; test: STAT5 (Tyr694) Phosphorylation Cell Based Assay; conditions: Homo sapiens, 2 hours, read-out: SET2 IC50
Summary of the method: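 SET-2 cells in RPMI with 10% FBS were exposed to compound for 2 h at 37 °C (0.5% DMSO final). After lysis, phospho-STAT5 (Tyr694) was read by HTRF (665/620 ratio) after 24 h antibody incubation at room temperature. IC50 was fitted from percent control activity versus log concentration.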

Chain of TRKA (Homo sapiens (Human), UniProt P04629) (P04629 33-796, species assumed): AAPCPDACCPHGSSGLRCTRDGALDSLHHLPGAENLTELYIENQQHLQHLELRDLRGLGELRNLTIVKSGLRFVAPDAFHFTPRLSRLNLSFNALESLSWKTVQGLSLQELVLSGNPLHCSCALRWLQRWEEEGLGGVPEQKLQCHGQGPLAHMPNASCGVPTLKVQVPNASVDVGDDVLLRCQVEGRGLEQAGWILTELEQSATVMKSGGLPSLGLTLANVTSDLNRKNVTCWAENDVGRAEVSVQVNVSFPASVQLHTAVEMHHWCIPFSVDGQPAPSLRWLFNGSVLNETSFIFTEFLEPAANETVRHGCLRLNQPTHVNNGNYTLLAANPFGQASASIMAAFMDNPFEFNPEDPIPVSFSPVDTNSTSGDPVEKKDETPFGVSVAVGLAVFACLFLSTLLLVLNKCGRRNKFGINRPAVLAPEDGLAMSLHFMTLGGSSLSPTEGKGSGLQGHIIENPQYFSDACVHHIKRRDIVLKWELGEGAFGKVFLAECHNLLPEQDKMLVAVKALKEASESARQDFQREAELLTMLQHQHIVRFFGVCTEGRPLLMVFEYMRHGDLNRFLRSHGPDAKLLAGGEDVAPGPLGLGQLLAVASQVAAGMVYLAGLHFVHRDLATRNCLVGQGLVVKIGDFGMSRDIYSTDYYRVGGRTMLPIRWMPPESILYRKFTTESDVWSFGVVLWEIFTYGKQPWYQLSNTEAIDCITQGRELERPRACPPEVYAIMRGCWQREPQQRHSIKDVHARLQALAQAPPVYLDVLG

With COCCNC(=O)c1ccc(-c2[nH]c3ncc4c(c3c2-c2ccc3c(cnn3C(C)C)c2)n([C@@H]2CC[C@@H](NC(=O)OC)C2)c(=O)n4C)cc1F [Example 14, Methyl ((1R,3R)-3-(7-(3-fluoro-4-((2-methoxyethyl)carbamoyl)phenyl)-8-(1-isopropyl-1H-indazol-5-yl)-3-methyl-2-oxo-3,6-dihydroimidazo[4,5-d]pyrrolo[2,3-b]pyridin-1(2H)-yl)cyclopentyl)carbamate] the IC50 (TRKA [1]) was > 2.5 µM, the “Selectivity TRKA/JH2 V617F” value (TRKA [2]) was “****** (selectivity of >12500-fold)” and the IC50 [3] was ≤ 0.3 µM.
With COC(=O)N[C@@H]1CC[C@@H](n2c(=O)n(C)c3cnc4[nH]c(-c5ccc(C(=O)NCC(F)(F)F)c(F)c5)c(-c5ccc6c(cnn6C(C)C)c5)c4c32)C1 [Example 11, Methyl ((1R,3R)-3-(7-(3-fluoro-4-((2,2,2-trifluoroethyl)carbamoyl)phenyl)-8-(1-isopropyl-1H-indazol-5-yl)-3-methyl-2-oxo-3,6-dihydroimidazo[4,5-d]pyrrolo[2,3-b]pyridin-1(2H)-yl)cyclopentyl)carbamate] the IC50 (TRKA [1]) was > 2.5 µM, the “Selectivity TRKA/JH2 V617F” value (TRKA [2]) was “****** (selectivity of >12500-fold)” and the IC50 [3] was ≤ 0.3 µM.
With CCNC(=O)c1ccc(-c2[nH]c3ncc4c(c3c2-c2ccc3c(cnn3C(C)C)c2)n([C@@H]2CC[C@@H](NC(=O)OC)C2)c(=O)n4C)cc1F [Example 6, Methyl ((1R,3R)-3-(7-(4-(ethylcarbamoyl)-3-fluorophenyl)-8-(1-isopropyl-1H-indazol-5-yl)-3-methyl-2-oxo-3,6-dihydroimidazo[4,5-d]pyrrolo[2,3-b]pyridin-1(2H)-yl)cyclopentyl)carbamate] the IC50 (TRKA [1]) was 1.25 to 2.5 µM, the “Selectivity TRKA/JH2 V617F” value (TRKA [2]) was “***** (selectivity of >5000-fold to ≤12500-fold)” and the IC50 [3] was ≤ 0.3 µM.
In the case of COC(=O)N[C@@H]1CC[C@@H](n2c(=O)n(C)c3cnc4[nH]c(-c5ccc(C(=O)N6CCOCC6)c(F)c5)c(-c5ccc6c(cnn6C(C)C)c5)c4c32)C1 [Example 16, Methyl ((1R,3R)-3-(7-(3-fluoro-4-(morpholine-4-carbonyl)phenyl)-8-(1-isopropyl-1H-indazol-5-yl)-3-methyl-2-oxo-3,6-dihydroimidazo[4,5-d]pyrrolo[2,3-b]pyridin-1(2H)-yl)cyclopentyl)carbamate], the IC50 (TRKA [1]) is reported as 1.25 to 2.5 µM, the “Selectivity TRKA/JH2 V617F” value (TRKA [2]) is reported as “****** (selectivity of >12500-fold)” and the IC50 [3] is reported as ≤ 0.3 µM.
With COC(=O)N[C@@H]1CC[C@@H](n2c(=O)n(C)c3cnc4[nH]c(-c5ccc(C(=O)NC6CC6C(F)(F)F)c(F)c5)c(-c5ccc6c(cnn6C(C)C)c5)c4c32)C1 (stereo partly drawn) [Example 10, Methyl ((1R,3R)-3-(7-(3-fluoro-4-((2-(trifluoromethyl)cyclopropyl)carbamoyl)phenyl)-8-(1-isopropyl-1H-indazol-5-yl)-3-methyl-2-oxo-3,6-dihydroimidazo[4,5-d]pyrrolo[2,3-b]pyridin-1(2H)-yl)cyclopentyl)carbamate] the IC50 (TRKA [1]) was > 2.5 µM, the “Selectivity TRKA/JH2 V617F” value (TRKA [2]) was “****** (selectivity of >12500-fold)” and the IC50 [3] was 0.3 to 0.8 µM.
With COCCN(C)C(=O)c1ccc(-c2[nH]c3ncc4c(c3c2-c2ccc3c(cnn3C(C)C)c2)n([C@@H]2CC[C@@H](NC(=O)OC)C2)c(=O)n4C)cc1F [Example 15, Methyl ((1R,3R)-3-(7-(3-fluoro-4-((2-methoxyethyl)(methyl)carbamoyl)phenyl)-8-(1-isopropyl-1H-indazol-5-yl)-3-methyl-2-oxo-3,6-dihydroimidazo[4,5-d]pyrrolo[2,3-b]pyridin-1(2H)-yl)cyclopentyl)carbamate] the IC50 (TRKA [1]) was > 2.5 µM, the “Selectivity TRKA/JH2 V617F” value (TRKA [2]) was “****** (selectivity of >12500-fold)” and the IC50 [3] was ≤ 0.3 µM.
For CNC(=O)c1ccc(-c2[nH]c3ncc4c(c3c2-c2ccc3c(cnn3C(C)C)c2)n([C@@H]2CC[C@@H](NC(=O)OC)C2)c(=O)n4C)cc1 [Example 21, Methyl ((1R,3R)-3-(8-(1-isopropyl-1H-indazol-5-yl)-3-methyl-7-(4-(methylcarbamoyl)phenyl)-2-oxo-3,6-dihydroimidazo[4,5-d]pyrrolo[2,3-b]pyridin-1(2H)-yl)cyclopentyl)carbamate], the IC50 (TRKA [1]) was 1.25 to 2.5 µM, the “Selectivity TRKA/JH2 V617F” value (TRKA [2]) was “****** (selectivity of >12500-fold)” and the IC50 [3] was 0.3 to 0.8 µM.
